# Where a SMILES comes first, the peptide text is derived from it. Bridges are numbered along the chain shown (N, C = ends). Roman numbers before positions name the chains, in order. [ ]: non-standard residue; d: D form. The star is where a group is joined. dThr(ol) = C[C@H](O)[C@@H](N)CO; Thr(ol) = C[C@@H](O)[C@H](N)CO; Tle = CC(C)(C)[C@H](N)C(=O)O; dDab = NCC[C@@H](N)C(=O)O; hCys = N[C@@H](CCS)C(=O)O; Dab = NCC[C@H](N)C(=O)O; Dap = NC[C@H](N)C(=O)O; OiPr = CC(C)O*
# Tests used:
# Type in all cases: cell-based
# [1] = system: Escherichia coli 926415; conditions: 926415
# How it was run: (§1)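 CLSI broth microdilution: inoculum ~10^6 CFU/mL in cation-adjusted Mueller-Hinton II broth, with peptide in serial two-fold dilutions plus Polysorbate 80 (0.002% final). MIC (μg/mL) is the lowest concentration without visible growth after 18-20 hours at 35° C.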
# [2] = system: Klebsiella pneumoniae 968733; conditions: 968733
# How it was run: as §1
# [3] = system: Escherichia coli ATCC 25922; conditions: ATCC 25922
# How it was run: as §1
# [4] = system: Acinetobacter baumannii DSM 30008; conditions: DSM 30008
# How it was run: as §1
# [5] = system: Klebsiella pneumoniae SSI #3010; conditions: SSI #3010
# How it was run: as §1
# [6] = system: Acinetobacter baumannii 872842; conditions: 872842
# How it was run: as §1
# [7] = system: Enterobacter cloacae 848840; conditions: 848840
# How it was run: as §1
# [8] = system: Pseudomonas aeruginosa ATCC 27853; conditions: ATCC 27853
# How it was run: as §1
# [9] = system: human red blood cells (hRBC); experiment: Hemolysis; conditions: red cells of human, 1 h, 200
# How it was run: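 Washed fresh human RBC (20% v/v) incubated with peptide at 200 μg/mL for 1 h at 37° C with shaking. Supernatant OD540 measured after dilution, blank corrected; percent hemolysis = OD540 peptide / OD540 of 2% Triton X-100 lysis × 100, PBS with 10% water as 0%.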
smiles,measurement,setting,value
CC(=O)N[C@H](C(=O)N[C@H]1CCSSC[C@@H](C(=O)N[C@@H](CO)C(N)=O)NC(=O)[C@H](C(C)(C)C)NC(=O)[C@H](CO)NC(=O)[C@H](Cc2c[nH]c3ccccc23)NC(=O)[C@H](CO)NC(=O)[C@@H](CCN)NC(=O)[C@H](CCC(=O)N[C@@H](CCN)C(=O)N[C@H](C(=O)N[C@@H](CN)C(=O)N[C@H]2CCNC(=O)[C@H]([C@@H](C)O)NC(=O)[C@H](CCN)NC(=O)[C@H](CCN)NC(=O)[C@H](CC(C)C)NC(=O)[C@@H](CC(C)C)NC(=O)[C@H](CCN)NC2=O)[C@@H](C)O)NC(=O)[C@H](CN)NC(=O)[C@H](Cc2ccc(O)cc2)NC1=O)C(C)C [Ex. 121] (I: Ac-V[hCys]Y[Dap]E[dDab]SWS[Tle]CS-NH2 / II: [Dab]T[Dap][Dab][Dab][dL]L[Dab][Dab]T; disulfide I:2-I:11; amide I:5-II:N; lactam II:4-II:C),MIC,[1],0.125 µg/mL
same,MIC,[2],0.25 µg/mL
same,MIC,[3],0.0625 µg/mL
same,MIC,[4],0.0625 µg/mL
same,MIC,[5],0.125 µg/mL
same,MIC,[6],0.0625 µg/mL
same,MIC,[7],0.125 µg/mL
same,MIC,[8],0.125 µg/mL
same,Hemolysis at 200 μg/mL,[9],<1%
CC(=O)N[C@H](C(=O)N[C@H]1CSSC[C@@H](C(=O)N[C@@H](CO)C(=O)OC(C)C)NC(=O)[C@H](C(C)(C)C)NC(=O)[C@H](CO)NC(=O)[C@H](Cc2c[nH]c3ccccc23)NC(=O)[C@H](CO)NC(=O)[C@@H](CCN)NC(=O)[C@H](CCC(=O)N[C@@H](CCN)C(=O)N[C@H](C(=O)N[C@@H](CN)C(=O)N[C@H]2CCNC(=O)[C@H]([C@@H](C)O)NC(=O)[C@H](CCN)NC(=O)[C@H](CCN)NC(=O)[C@H](CC(C)C)NC(=O)[C@@H](CC(C)C)NC(=O)[C@H](CCN)NC2=O)[C@@H](C)O)NC(=O)[C@H](CN)NC(=O)[C@H](Cc2ccc(O)cc2)NC1=O)C(C)C [Ex. 122] (I: Ac-VCY[Dap]E[dDab]SWS[Tle]CS-OiPr / II: [Dab]T[Dap][Dab][Dab][dL]L[Dab][Dab]T; disulfide I:2-I:11; amide I:5-II:N; lactam II:4-II:C),MIC,[1],4 µg/mL
same,MIC,[2],2 µg/mL
same,MIC,[3],0.25 µg/mL
same,MIC,[4],0.25 µg/mL
same,MIC,[5],0.5 µg/mL
same,MIC,[6],1 µg/mL
same,MIC,[7],2 µg/mL
same,MIC,[8],0.5 µg/mL
same,Hemolysis at 200 μg/mL,[9],1%
CC(=O)N[C@H](C(=O)N[C@H]1CSSC[C@@H](C(=O)N[C@H](CO)[C@@H](C)O)NC(=O)[C@H](C(C)(C)C)NC(=O)[C@H](CO)NC(=O)[C@H](Cc2c[nH]c3ccccc23)NC(=O)[C@H](CO)NC(=O)[C@@H](CCN)NC(=O)[C@H](CCC(=O)N[C@@H](CCN)C(=O)N[C@H](C(=O)N[C@@H](CN)C(=O)N[C@H]2CCNC(=O)[C@H]([C@@H](C)O)NC(=O)[C@H](CCN)NC(=O)[C@H](CCN)NC(=O)[C@H](CC(C)C)NC(=O)[C@@H](CC(C)C)NC(=O)[C@H](CCN)NC2=O)[C@@H](C)O)NC(=O)[C@H](CN)NC(=O)[C@H](Cc2ccc(O)cc2)NC1=O)C(C)C [Ex. 123] (I: Ac-VCY[Dap]E[dDab]SWS[Tle]C[Thr(ol)] / II: [Dab]T[Dap][Dab][Dab][dL]L[Dab][Dab]T; disulfide I:2-I:11; amide I:5-II:N; lactam II:4-II:C),MIC,[1],0.03125 µg/mL
same,MIC,[2],0.0625 µg/mL
same,MIC,[3],0.01562 µg/mL
same,MIC,[4],0.01562 µg/mL
same,MIC,[5],0.0625 µg/mL
same,MIC,[6],0.03125 µg/mL
same,MIC,[7],0.0625 µg/mL
same,MIC,[8],0.0625 µg/mL
same,Hemolysis at 200 μg/mL,[9],<1%
CC(=O)N[C@H](C(=O)N[C@H]1CSSC[C@@H](C(=O)N[C@@H](CO)[C@H](C)O)NC(=O)[C@H](C(C)(C)C)NC(=O)[C@H](CO)NC(=O)[C@H](Cc2c[nH]c3ccccc23)NC(=O)[C@H](CO)NC(=O)[C@@H](CCN)NC(=O)[C@H](CCC(=O)N[C@@H](CCN)C(=O)N[C@H](C(=O)N[C@@H](CN)C(=O)N[C@H]2CCNC(=O)[C@H]([C@@H](C)O)NC(=O)[C@H](CCN)NC(=O)[C@H](CCN)NC(=O)[C@H](CC(C)C)NC(=O)[C@@H](CC(C)C)NC(=O)[C@H](CCN)NC2=O)[C@@H](C)O)NC(=O)[C@H](CN)NC(=O)[C@H](Cc2ccc(O)cc2)NC1=O)C(C)C [Ex. 124] (I: Ac-VCY[Dap]E[dDab]SWS[Tle]C[dThr(ol)] / II: [Dab]T[Dap][Dab][Dab][dL]L[Dab][Dab]T; disulfide I:2-I:11; amide I:5-II:N; lactam II:4-II:C),MIC,[1],0.25 µg/mL
same,MIC,[2],0.25 µg/mL
same,MIC,[3],0.0625 µg/mL
same,MIC,[4],0.0625 µg/mL
same,MIC,[5],0.125 µg/mL
same,MIC,[6],0.0625 µg/mL
same,MIC,[7],0.125 µg/mL
same,MIC,[8],0.125 µg/mL
same,Hemolysis at 200 μg/mL,[9],2%

# — patent US11629171B2, “Beta-hairpin peptidomimetics” (POLYPHOR AG, priority 2017, dated 2023)
